Test results taken from US11845919B2, “Blood culture system with low media volume” (BECTON, DICKINSON AND COMPANY, priority 2015, dated 2023).

Each molecule was assayed on antibiotic/microorganism combinations (assay: TTD tests per antibiotic, Low Volume/Low Ratio vs PlusAer control). Details: drug amount at peak serum level in 7 ml of blood.
Format: cell-based
Description: The performance of 1:1 blood-to-broth ratio in the presence of an inhibitory antibiotic was tested in comparison to a standard diluted blood-to-broth ratio at least 1:3. Two different sample preparations for the 1:1 blood-to-broth ratio are described below.
FIG. 3A illustrates a low volume/low ratio preparation that is prepared in a 30 ml vial with the resin and lytic media disposed in separate chambers. The preparation contained resin and 8 ml total lytic media. The sensor in the container was a solid-state fluorescent 02 sensor. The fluorescent signal changes were used to determine microorganism growth. […] The low volume/low ratio preparation provided a 1:1 blood-to-broth ratio. The total 8 ml lytic media were separated into two parts. One part of the lytic media was in the 30 ml bottle with resin and the other part of the lytic media was in a separate device and the media therein was added under sterile conditions into the 30 ml bottle at the time the bottle was inoculated with both the blood sample and the microorganisms.
FIG. 3B illustrates the second sample preparation identified as “PlusLytic”. The PlusLytic preparation uses the BACTEC Plus Aerobic product that is commercially available, which is 30 ml of media in the 80 ml bottle. At the time of testing, 8 ml of blood, a predetermined amount of antibiotic, 10-100 CFU's of microorganisms, and an additional 20 mg of saponin were combined with the 30 ml of media in the bottle. […] The control test sample preparation is depicted in FIG. 3C and identified as “PlusAer”. The PlusAer preparation uses the commercially available BACTEC Plus Aerobic product without any additional media components. At the time of testing, 8 ml of blood, a predetermined amount of antibiotic and 10-100 CFU's of microorganisms are combined with the contents of the BACTEC Plus Aerobic product.
Each sample preparation was tested with 64 antibiotic/microorganism combinations. The antibiotics tested were Gentamicin, Amoxicillin-Clavulanate, Aztreonam, Ceftriaxone, Cefepime, Imipenem, Meropenem, Piperacillin-Tazobactam, Vancomycin, Tigecycline, Ciprofloxacin, Tetracycline, Fluconazole. The drug quantity inoculated into each test bottle was equivalent to the drug amount at its peak serum level in 7 ml of blood. These antibiotics were combined with certain microorganisms that they generally treat. For example, Amoxicillin-Clavulanate was combined with S. aureus, E. coli, and E. faecalis. Each sample was tested for both TTD and recovery of the microorganism in the presence of drugs.
The media was inoculated with blood sample, antibiotics and saponin a few minutes apart from each other.

Molecule	TTD of the Low Volume/Low Ratio preparation as compared to the PlusAer preparation
Amoxicillin-Clavulanate [Amoxicillin/clavulanic acid]	faster TTD
CO/N=C(\C(=O)N[C@@H]1C(=O)N2C(C(=O)O)=C(CSc3nc(=O)c(=O)[nH]n3C)CS[C@H]12)c1csc(N)n1 [Ceftriaxone]	faster TTD
C[C@@H](O)[C@H]1C(=O)N2C(C(=O)O)=C(S[C@@H]3CN[C@H](C(=O)N(C)C)C3)[C@H](C)[C@H]12 [Meropenem]	faster TTD
CN[C@H](CC(C)C)C(=O)N[C@H]1C(=O)N[C@@H](CC(N)=O)C(=O)N[C@H]2C(=O)N[C@H]3C(=O)N[C@H](C(=O)N[C@H](C(=O)O)c4cc(O)cc(O)c4-c4cc3ccc4O)[C@H](O)c3ccc(c(Cl)c3)Oc3cc2cc(c3O[C@@H]2O[C@H](CO)[C@@H](O)[C@H](O)[C@H]2O[C@H]2C[C@](C)(N)[C@H](O)[C@H](C)O2)Oc2ccc(cc2Cl)[C@H]1O [Vancomycin]	faster TTD
Gentamicin	slower TTD
